Laboratory results taken from EP4696689A1, “SALT FORM AND CRYSTAL FORM OF CHIRAL HETEROCYCLIC COMPOUND HAVING HEDGEHOG PATHWAY ANTAGONIST ACTIVITY” (Suzhou Kintor Pharmaceuticals, Inc., priority 2023, dated 2024).

Assays:
[1] = tested on: primary extracted medulloblastoma cells; assay: antitumor efficacy against medulloblastoma, subcutaneous xenograft model;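 further: male CB-17/SCID mice bearing subcutaneous tumors, randomized at 150-300 mm^3, tumor volume from caliper diameters as 0.5 × longest × shortest squared, measured twice weekly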; assay type: in vivo, CB-17/SCID mice; conditions: 10 mg/kg i.g. BID, 17 days
Description: 60 male CB-17/SCID mice (aged 6-8 weeks) were purchased from Shanghai SLAC Laboratory Animal Co., Ltd. Animals were housed in individually ventilated cages (IVCs), with five mice per cage. Housing conditions were as follows: temperature was maintained at 20-26°C; humidity was 30-70%; 12 hours of light and 12 hours of darkness.
(§2) 30 mice with uniform tumor sizes (Coefficient of Variation, CV < 30%, CV = Standard Deviation / Mean) were selected from this group. These mice were selected and randomly divided into five experimental groups according to Table 6-2, with six mice in each group and one group per cage. Drug administration began the day after grouping and lasted for 17 days with a frequency of twice daily (BID). The drug was discontinued after 17 days to observe tumor changes.
(§3) During routine examinations, animals were monitored for tumor growth, activity level, food intake, water consumption, weight gain or loss, eye, fur, and any other abnormal behaviors. Animal deaths and clinical abnormalities were recorded. Tumor volume (TV) was measured twice weekly using calipers and calculated using the formula: TV = 0.5a × b^2, wherein a is the longest diameter of the tumor and b is the shortest diameter. Body weight was recorded twice weekly, concurrently with tumor volume measurements.
(§4) If the animals' weight subsequently recovered to within a 10% loss compared to baseline, whether to continue the administration was based on the animals' condition. The in vivo experimental for an individual animal or the entire group would be terminated under the following conditions. The animals will be euthanized before death or coma. • ➢ If the animals' health condition deteriorated continuously, causing persistent suffering and is unable to eat or drink. • ➢ If the animal became emaciated, with a body weight loss exceeding 20% compared to the initial administration. • ➢ If the tumor volume of an individual mouse exceeded 3000 mm^3 or the mean tumor volume of the entire group exceeded 2000 mm^3.
All data were analyzed using GraphPad Prism 5.0. P value < 0.05 was considered statistically significant.

Gli1 Gene = assay: Gli1 mRNA expression in tumor tissues (RT-qPCR), Shh signaling pathway analysis; assay type: in vivo, CB-17/SCID mice; conditions: 10 mg/kg i.g. BID × 3 days; tumor tissue 2 hours after last administration; GAPDH internal reference
Excerpt: Table 7-1 The Grouping and Drug Administration Plan
Primary tumor cells were extracted from Math1-Cre/Ptch1 ^C/C mice with spontaneous medulloblastoma and subcutaneously inoculated into CB-17/SCID mice to establish a xenograft model of medulloblastoma.
CB-17/SCID mice were subcutaneously injected with primary extracted medulloblastoma cells. After 3-4 weeks, a subset of mice developed tumors with volumes ranging from 150 to 300 mm^3.
From these mice, 25 tumor-bearing mice with uniform tumor sizes (with CV < 30%, CV = SD/Mean) were selected and randomly divided into 5 experimental groups (Vehicle, GDC-0449-10 mg/kg, Compound A-10 mg/kg, Compound A-3 mg/kg, Compound A-1 mg/kg) according to Table 2. Each group consisted of 5 mice per cage. Administration began on the day after grouping. The administration period was 3 days, with a frequency of BID. Tumor tissues were collected 2 hours after the last administration, and the mRNA expression level of the Glil gene in the tumor tissues was analyzed by RT-qPCR.
The tumor tissues were lysed by RNAiso Plius (TaKaRa, 108-95-2) to extractand RNA was then extracted using chloroform extraction and isopropanol precipitation methods. Subsequently, the mRNA level of the Glil gene was detected using a real-time fluorescence quantitative PCR instrument (ABI 7500), with GAPDH serving as the internal reference for quantitative analysis.
Experimental data in all tables are presented as "mean ± standard deviation" with error bars in figures representing standard error of the mean (SEM). Student's t-test was used to compare statistical differences in Glil gene mRNA expression levels in tumor tissues among treatment groups. All data were analyzed using GraphPad Prism 5.0. P-value <0.05 was considered statistically significant. ***, P<0.001; ##, P<0.01.
Glil is a target gene of the Hedgehog signaling pathway, and its mRNA expression level reflects the activation status of the hedgehog signaling pathway.

[2] = SCID tumor-bearing mice, i.g. BID × 3 days
Description: During routine examinations, animals were monitored for tumor growth, activity level, food intake, water consumption, weight gain or loss, eye, fur, and any other abnormal behaviors. Animal deaths and clinical abnormalities were recorded.

in vivo = conditions: male, C57, mouse, plasma, po, 10 mg/kg
Description: The collected plasma samples were subjected to a protein precipitation method by using an organic reagent according to the following method to extract test article in the plasma, and the extracted sample was subjected to quantitative concentration analysis through the LC-MS/MS.
Meanwhile, an accompanying standard curve and quality control samples were prepared for quantitative analysis.
The fumarate salt form F of the compound of formula (I) Group: 50 µL of plasma at each time point was taken, 400 µL of acetonitrile was added, vortex mixing and centrifugation was performed at 10000 rpm for 10 min, and a 200 µL supernatant for LC-MS/MS analysis was taken. Meanwhile, an accompanying standard curve and quality control samples were prepared for quantitative analysis.
According to the plasma drug concentration data obtained through analysis, the main pharmacokinetic parameters were calculated according to the non-atrioventricular model by using Kinetic software (Version 5.0).

[3] = body weight of tumor-bearing mice during treatment
Description: as §2, §3, §4

[4] = hygroscopicity evaluation by dynamic vapor sorption (DVS); assay type: physicochemical
Description: The DVS curves were collected on a DVS Intrinsic from SMS (Surface Measurement Systems).The relative humidity at 25°C was corrected with the deliquescence points of LiCl, Mg (NO3)2 and KCl.

[5] = dynamic solubility in water and three biological solvents; assay type: physicochemical; conditions: 37 °C, thermodynamic from solid
Description: Finally, the volume is fixed with purified water.
(§1) 0.17 g of sodium dihydrogen phosphate (NaH2PO4, anhydrous), 0.021 g of sodium hydroxide and 0.31 g of sodium chloride were weighed into a 50 mL volumetric flask respectively, about 48 mL of purified water was added for dissolution, the pH was adjusted to exactly 6.5 with 1M hydrochloric acid or 1M sodium hydroxide, and the volume was fixed with purified water. 0.11 g of SIF powder was then added, stirred and sonicated to completely dissolve the powder. The solution can be used only after being placed at room temperature for two hours to reach equilibrium.
as §1, with “0.41 mL” for “0.17 g”, “glacial acetic acid, 0.20” for “sodium dihydrogen phosphate (NaH2PO4, anhydrous), 0.021”, “0.59” for “0.31”, “respectively, and” for “respectively,”, “5.0” for “6.5”, “0.56” for “0.11”
The solubility results of the two samples in SGF, FASSIT and FeSSIF are similar. […] Table 4-1 Summary of the dynamic solubility test results

[6] = solid state stability (XRPD, HPLC, chiral purity); assay type: physicochemical
Description: The purity test, the dynamic solubility and the stability test are tested by the Agilent 1260/1100 high performance liquid chromatograph, and the analysis conditions and chiral purity test analysis conditions of the high performance liquid chromatography test are respectively as follows.
After placing the amorphous free base and fumarate crystal form F of the compound of formula (I) at 25°C/60% RH and 40°C/75% RH for 1 week, the physical and chemical stability of the sample is detected by XRPD and HPLC (at the same time the chiral purity of the sample is tested). […] Table 4-2 Solid Stability Evaluation Summary

[7] = rats, P.O., 10 mg/kg; data from WO2018006756A1 (B1); cited from earlier work
[8] = pH 1.8, simulated gastric fluid

In the case of `CS(=O)(=O)c1ccc(C(=O)Nc2ccc(Cl)c(-c3ccccn3)c2)c(Cl)c1` [GDC-0449, reference compound], the “T/C (%)” value [1] is reported as 32.49%, the “TGI (%)” value ([1]; TGI = [1 - RTV(treatment group) / RTV(control group)] × 100%) is reported as 67.51% and the “mRNA Expression Level of Glil Gene” value (Gli1 Gene) is reported as 0.194 ± 0.074. For the same compound, the “abnormal behaviors or animal deaths during the administration period” value [2] was “no abnormal behaviors or animal deaths”, the AUC(0-inf) (in vivo) was 6650 ng·h/mL and the AUC(0-t) (in vivo) was 6040 ng·h/mL. The Cmax (in vivo) was 1270 ng/mL, the MRT (in vivo) was 8.33 h and the Tmax (in vivo) was 0.63 h. For the same compound, the half-life (in vivo) was 8.43 h, the “Mean Body Weight at Day 0” value ([3]; 10 mg/kg group, before treatment) was 23.7 ± 2.1 g and the “Body Weight Change Rate (%)” value ([3]; 10 mg/kg i.g. BID, 17 days) was 9.3%. For the same compound, the “Mean Body Weight at Dosing Endpoint” value ([3]; 10 mg/kg i.g. BID, 17 days) was 25.9 ± 2.0 g and the “impact on the body weight of tumor-bearing mice during the treatment period” value ([3]; administered doses, i.g. BID × 17 days) was “no significant impact”.
For `Cc1cnc(-c2cc(N3CCc4nc(N5CCC(O)CC5)ncc4[C@H]3C)ncc2Cl)c(C)c1` [compound of formula (I), (R)-1-(6-(5'-chloro-3,5-dimethyl-[2,4'-bipyridin]-2'-yl)-5-methyl-5,6,7,8-tetrahydropyrido[4,3-d]pyrimidin-2-yl)piperidin-4-ol], the “crystal transformation or crystal form change after the DVS test (XRPD)” value ([4]; 0% RH-95% RH-0% RH, 25°C) was “no crystal transformation or crystal form change”, the “Water adsorption (25°C/80%RH)” value ([4]; 25°C/80%RH) was 2.4 and the moisture adsorption ([4]; 25°C/80%RH) was 2.4%. The solubility at 1 h [5, 8] was 4100 µg/mL, the solubility at 2 h [5, 8] was 3900 µg/mL and the solubility at 4 h [5, 8] was 4000 µg/mL. The solubility at 24 h [5, 8] was 3900 µg/mL, the solubility at 1 h ([5]; pH 5, fessif) was 3000 µg/mL and the solubility at 2 h ([5]; pH 5, fessif) was 3000 µg/mL. For the same compound, the solubility at 4 h ([5]; pH 5, fessif) was 2900 µg/mL, the solubility at 24 h ([5]; pH 5, fessif) was 2900 µg/mL and the solubility at 1 h ([5]; pH 6.5, fassif) was 210 µg/mL. It also gave a solubility at 2 h ([5]; pH 6.5, fassif) of 200 µg/mL, a solubility at 4 h ([5]; pH 6.5, fassif) of 240 µg/mL and a solubility at 24 h ([5]; pH 6.5, fassif) of 220 µg/mL. For the same compound, the solubility at 1 h ([5]; water) was 13 µg/mL, the solubility at 2 h ([5]; water) was 16 µg/mL and the solubility at 4 h ([5]; water) was 18 µg/mL. The solubility at 24 h ([5]; water) was 30 µg/mL, the “Chiral purity (%)” value ([6]; 25°C/60%RH_1w) was 98.7% and the “Purity (Area%)” value ([6]; 25°C/60%RH_1w) was 99.0 Area%. For the same compound, the “Purity/Initial purity (%)” value ([6]; 25°C/60%RH_1w) was 100.0%, the “Chiral purity (%)” value ([6]; 40°C/75%RH_1w) was 98.7% and the “Purity (Area%)” value ([6]; 40°C/75%RH_1w) was 98.9 Area%. The “Purity/Initial purity (%)” value ([6]; 40°C/75%RH_1w) was 99.9%, the “Chiral purity (%)” value ([6]; Start) was 98.5% and the “Purity (Area%)” value ([6]; Start) was 99.0 Area%. The “Solid State Stability” value ([6]; summary, 25°C/60% RH and 40°C/75% RH for 1 week) was “good physical and chemical stability” and the F% [7] was 100%.
